{
  "source": "ChEMBL document CHEMBL4229541",
  "about": "“Vinca alkaloids and analogues as anti-cancer agents: Looking back, peering ahead” (Bioorg Med Chem Lett, 2018)",
  "type_in_all_cases": "functional, cell-based",
  "key": {"[1]": {"tested_on": "L1210", "assay": "Growth inhibition of mouse L1210 cells"}, "[2]": {"tested_on": "HCT-116", "assay": "Growth inhibition of human HCT116 cells"}, "[3]": {"tested_on": "HCT-116/VM46", "assay": "Growth inhibition of human HCT116/VM46 cells"}},
  "data": [
    {"smiles": "CC[C@]1(N=C=S)C[C@@H]2CN(CCc3c([nH]c4ccccc34)[C@@](C(=O)OC)(c3cc4c(cc3OC)N(C)[C@H]3[C@@](O)(C(=O)OC)[C@H](OC(C)=O)[C@]5(CC)C=CCN6CC[C@]43[C@@H]65)C2)C1", "values": [
      {"measurement": "IC50", "setting": "[1]", "result": 590, "unit": "nM"},
      {"measurement": "IC50", "setting": "[2]", "result": 530, "unit": "nM"},
      {"measurement": "IC50", "setting": "[3]", "result": 7000, "unit": "nM"}
    ]},
    {"smiles": "CC[C@]1(O)C[C@@H]2CN(CCc3c([nH]c4ccccc34)[C@@](C(=O)OC)(c3cc4c(cc3OC)N(C)[C@H]3[C@@](O)(C(=O)OC)[C@H](OC(C)=O)[C@]5(CC)C=CCN6CC[C@]43[C@@H]65)C2)C1", "note": "[VINBLASTINE]", "values": [
      {"measurement": "IC50", "setting": "[3]", "result": 600, "unit": "nM"}
    ]},
    {"smiles": "CC[C@]1(O)C[C@@H]2CN(CCc3c([nH]c4ccccc34)[C@@](C(=O)OC)(c3cc4c(cc3OC)N(C)[C@@H]3[C@]45CCN4CC=C[C@@](C)(C[C@]3(O)C(=O)OC)[C@H]45)C2)C1", "values": [
      {"measurement": "IC50", "setting": "[1]", "result": 550, "unit": "nM"},
      {"measurement": "IC50", "setting": "[2]", "result": 560, "unit": "nM"},
      {"measurement": "IC50", "setting": "[3]", "result": 5300, "unit": "nM"}
    ]},
    {"smiles": "CC[C@]1(O)C[C@@H]2CN(CCc3c([nH]c4ccccc34)[C@@](C(=O)OC)(c3cc4c(cc3OC)N(C)[C@@H]3[C@]45CCN4CC=C[C@@H](C[C@]3(O)C(=O)OC)[C@H]45)C2)C1", "values": [
      {"measurement": "IC50", "setting": "[1]", "result": 610, "unit": "nM"},
      {"measurement": "IC50", "setting": "[2]", "result": 400, "unit": "nM"},
      {"measurement": "IC50", "setting": "[3]", "result": 3500, "unit": "nM"}
    ]},
    {"smiles": "CC[C@]1(O)C[C@@H]2CN(CCc3c([nH]c4ccccc34)[C@@](C(=O)OC)(c3cc4c(cc3OC)N(C)[C@H]3[C@@](O)(C(=O)OC)[C@H](OC(C)=O)[C@]5(CC)C[C@@H](O)CN6CC[C@]43[C@@H]65)C2)C1", "values": [
      {"measurement": "IC50", "setting": "[1]", "result": 7600, "unit": "nM"},
      {"measurement": "IC50", "setting": "[2]", "result": 7700, "unit": "nM"},
      {"measurement": "IC50", "setting": "[3]", "result": "> 10000", "unit": "nM"}
    ]},
    {"smiles": "CC[C@]1(N=[N+]=[N-])C[C@@H]2CN(CCc3c([nH]c4ccccc34)[C@@](C(=O)OC)(c3cc4c(cc3OC)N(C)[C@H]3[C@@](O)(C(=O)OC)[C@H](OC(C)=O)[C@]5(CC)C=CCN6CC[C@]43[C@@H]65)C2)C1", "values": [
      {"measurement": "IC50", "setting": "[1]", "result": 670, "unit": "nM"},
      {"measurement": "IC50", "setting": "[2]", "result": 690, "unit": "nM"},
      {"measurement": "IC50", "setting": "[3]", "result": 5500, "unit": "nM"}
    ]},
    {"smiles": "CC[C@]1(N)C[C@@H]2CN(CCc3c([nH]c4ccccc34)[C@@](C(=O)OC)(c3cc4c(cc3OC)N(C)[C@H]3[C@@](O)(C(=O)OC)[C@H](OC(C)=O)[C@]5(CC)C=CCN6CC[C@]43[C@@H]65)C2)C1", "values": [
      {"measurement": "IC50", "setting": "[1]", "result": 640, "unit": "nM"},
      {"measurement": "IC50", "setting": "[2]", "result": 600, "unit": "nM"},
      {"measurement": "IC50", "setting": "[3]", "result": "> 10000", "unit": "nM"}
    ]},
    {"smiles": "CC[C@]1(O)C[C@@H]2CN(CCc3c([nH]c4ccccc34)[C@@](C(=O)OC)(c3cc4c(cc3OC)N(C)[C@H]3[C@@](O)(C(=O)OC)[C@H](OC(C)=O)[C@]5(CC)C[C@H](O)CN6CC[C@]43[C@@H]65)C2)C1", "values": [
      {"measurement": "IC50", "setting": "[1]", "result": 610, "unit": "nM"},
      {"measurement": "IC50", "setting": "[2]", "result": 630, "unit": "nM"},
      {"measurement": "IC50", "setting": "[3]", "result": "> 10000", "unit": "nM"}
    ]},
    {"smiles": "CC[C@]1(O)C[C@@H]2CN(CCc3c([nH]c4ccccc34)[C@@](C(=O)OC)(c3cc4c(cc3OC)N(C)[C@H]3[C@@](O)(C(=O)OC)[C@H](C(=O)OC)[C@]5(CC)C=CCN6CC[C@]43[C@@H]65)C2)C1", "values": [
      {"measurement": "IC50", "setting": "[1]", "result": 8.1, "unit": "nM"},
      {"measurement": "IC50", "setting": "[2]", "result": 6.1, "unit": "nM"}
    ]},
    {"smiles": "CC[C@]1(O)C[C@@H]2CN(CCc3c([nH]c4ccccc34)[C@@](C(=O)OC)(c3cc4c(cc3OC)N(C)[C@H]3[C@]5(O)C(=O)N(C)CCC5[C@]5(CC)CCCN6CC[C@]43C65)C2)C1", "note": "(some centres undefined)", "values": [
      {"measurement": "IC50", "setting": "[1]", "result": 8400, "unit": "nM"},
      {"measurement": "IC50", "setting": "[2]", "result": 7900, "unit": "nM"},
      {"measurement": "IC50", "setting": "[3]", "result": "> 10000", "unit": "nM"}
    ]},
    {"smiles": "CC[C@]1(SC#N)C[C@@H]2CN(CCc3c([nH]c4ccccc34)[C@@](C(=O)OC)(c3cc4c(cc3OC)N(C)[C@H]3[C@@](O)(C(=O)OC)[C@H](OC(C)=O)[C@]5(CC)C=CCN6CC[C@]43[C@@H]65)C2)C1", "values": [
      {"measurement": "IC50", "setting": "[1]", "result": 560, "unit": "nM"},
      {"measurement": "IC50", "setting": "[2]", "result": 550, "unit": "nM"},
      {"measurement": "IC50", "setting": "[3]", "result": 2900, "unit": "nM"}
    ]},
    {"smiles": "CC[C@]1(O)C[C@@H]2CN(CCc3c([nH]c4ccccc34)[C@@](C(=O)OC)(c3cc4c(cc3OC)N(C)[C@H]3[C@@](O)(C(=O)OC)[C@H](OC(C)=O)[C@]5(CC)C[C@@H](Cl)CN6CC[C@]43[C@@H]65)C2)C1", "values": [
      {"measurement": "IC50", "setting": "[1]", "result": 840, "unit": "nM"},
      {"measurement": "IC50", "setting": "[2]", "result": 710, "unit": "nM"},
      {"measurement": "IC50", "setting": "[3]", "result": 8600, "unit": "nM"}
    ]},
    {"smiles": "CC[C@]1(O)C[C@@H]2CN(CCc3c([nH]c4ccccc34)[C@@](C(=O)OC)(c3cc4c(cc3OC)N(C)[C@@H]3[C@]45CCN4CC=C[C@@](CC)(C[C@]3(O)C(=O)OC)[C@H]45)C2)C1", "values": [
      {"measurement": "IC50", "setting": "[1]", "result": 58000, "unit": "nM"},
      {"measurement": "IC50", "setting": "[2]", "result": 60000, "unit": "nM"},
      {"measurement": "IC50", "setting": "[3]", "result": 660000, "unit": "nM"}
    ]},
    {"smiles": "CC[C@]1(O)C[C@@H]2CN(CCc3c([nH]c4ccccc34)[C@@](C(=O)OC)(c3cc4c(cc3OC)N(C)[C@H]3[C@]5(O)C(=O)N(C)CCC5[C@@H]5CCCN6CC[C@]43C56)C2)C1", "note": "(some centres undefined)", "values": [
      {"measurement": "IC50", "setting": "[1]", "result": 570, "unit": "nM"},
      {"measurement": "IC50", "setting": "[2]", "result": 520, "unit": "nM"},
      {"measurement": "IC50", "setting": "[3]", "result": 6600, "unit": "nM"}
    ]}
  ]
}
